According to ChEMBL document CHEMBL4145506, “Synthesis and biological evaluation of 4,6-diphenyl-2-(1H-pyrrol-1-yl)nicotinonitrile analogues of crolibulin and combretastatin A-4” (Eur J Med Chem, 2018):
Active and inactive are the calls of the source. The rule behind the calls is not given here.

Legend:
SMMC-7721 = assay: Antiproliferative activity against human SMMC7721 cells after 72 hrs by MTT assay; type: functional, cell-based; settings: SMMC-7721, 72 h
HT-29 [1] = assay: cells; settings: Homo sapiens, HT-29, 72 h
MKN-45 = assay: cells; settings: Homo sapiens, MKN-45, 72 h
Description: Antiproliferative activity against human MKN45 cells after 72 hrs by MTT assay

NCI-H460 [2] = assay: Antiproliferative activity against human H460 cells after 72 hrs by MTT assay; type: functional, cell-based; settings: NCI-H460, 72 h
A549 [3] = assay: cells; settings: Homo sapiens, A549, 72 h
Description: Antiproliferative activity against human A549 cells after 72 hrs by MTT assay

A549 [4] = assay: Induction of microtubule depolymerization in human A549 cells assessed as scattered short microtubule fragment formation in cytoplasm at 30 nM after 24 hrs by DAPI staining based immunofluorescence microscopic method; type: cell-based
HT-29 [5] = assay: Potency index, ratio of crolibulin IC50 to compound IC50 for human HT-29 cells; type: functional
A549 [6] = assay: Potency index, ratio of CA-4 IC50 to compound IC50 for human A549 cells; type: functional
NCI-H460 [7] = assay: Potency index, ratio of CA-4 IC50 to compound IC50 for human H460 cells; type: functional
A549 [8] = assay: Potency index, ratio of crolibulin IC50 to compound IC50 for human A549 cells; type: functional

Row | IC50 (SMMC-7721) | IC50 (HT-29 [1]) | IC50 (MKN-45) | IC50 (NCI-H460 [2]) | IC50 (A549 [3]) | Compound | Activity (A549 [4]) | Ratio IC50 (HT-29 [5]) | Ratio IC50 (A549 [6]) | Ratio IC50 (NCI-H460 [7]) | Ratio IC50 (A549 [8])
1 | 33.9 µM | 1.77 µM | 39.8 µM | 4.53 µM | 4.72 µM | COc1cc(-c2cc(-c3ccc(F)cc3F)nc(-n3cccc3CN3CCN(C)CC3)c2C#N)cc(OC)c1OC |  |  |  |  | 
2 | 4.35 µM |  |  | 0.05 µM |  | COc1cc(-c2cc(-c3ccc(F)cc3)nc(-n3cccc3CN3CCN(C)CC3)c2C#N)cc(OC)c1OC |  |  |  |  | 
3 | 61.1 µM | 9.34 µM | 58.5 µM | 21.3 µM | 44.1 µM | COc1cc(-c2cc(-c3ccc(F)cc3)nc(-n3cccc3)c2C#N)cc(OC)c1OC |  |  |  |  | 
4 | 2.36 µM | 3.71 µM | 45.3 µM | 5.77 µM | 12.6 µM | COc1ccc(-c2cc(-c3ccc(F)cc3)nc(-n3cccc3CN(C)C)c2C#N)c(OC)c1OC |  |  |  |  | 
5 | 7.73 µM | 8.76 µM | 5.91 µM | 5.3 µM | 8.07 µM | COc1cc(-c2cc(-c3ccc(F)cc3F)nc(-n3cccc3CN3CCC(C)CC3)c2C#N)cc(OC)c1OC |  |  |  |  | 
6 | 20.9 µM | 0.1 µM | 10.4 µM | 0.31 µM | 0.17 µM | COc1cc(-c2cc(-c3ccc(F)cc3)nc(-n3cccc3CN(C)C)c2C#N)cc(OC)c1OC |  |  |  |  | 
7 | 33.4 µM | 0.95 µM | 6.29 µM | 2.98 µM | 9.54 µM | CNCc1cccn1-c1nc(-c2ccc(F)cc2F)cc(-c2cc(OC)c(OC)c(OC)c2)c1C#N |  |  |  |  | 
8 | 21.9 µM | 2.78 µM | 57.5 µM | 4.37 µM | 16 µM | COc1cc(-c2cc(-c3ccc(F)cc3F)nc(-n3cccc3CNC(C)C)c2C#N)cc(OC)c1OC |  |  |  |  | 
9 | 40.8 µM | 6.34 µM | 39.7 µM | 12.5 µM | 11 µM | COc1cc(-c2cc(-c3ccc(F)cc3F)nc(-n3cccc3CN3CCOCC3)c2C#N)cc(OC)c1OC |  |  |  |  | 
10 | 11.7 µM | 2.51 µM | 7.28 µM | 6.18 µM | 10.7 µM | COc1cc(-c2cc(-c3ccc(F)cc3F)nc(-n3cccc3CN(C)C)c2C#N)cc(OC)c1OC |  |  |  |  | 
11 | 5.87 µM |  |  | 0.07 µM |  | COc1cc(-c2cc(-c3ccc(F)cc3)nc(-n3cccc3CN3CCC(C)CC3)c2C#N)cc(OC)c1OC |  |  |  |  | 
12 | 18.8 µM |  |  | 5.56 µM |  | COc1cc(-c2cc(-c3ccc(F)cc3)nc(-n3cccc3CN3CCOCC3)c2C#N)cc(OC)c1OC |  |  |  |  | 
13 | 40.3 µM | 5.86 µM | 43.1 µM | 4.29 µM | 10.8 µM | COc1cc(-c2cc(-c3ccc(F)cc3F)nc(-n3cccc3CN3CCCC3)c2C#N)cc(OC)c1OC |  |  |  |  | 
14 | 47.4 µM | 1.37 µM | 46.2 µM | 3.88 µM | 6.95 µM | COc1ccc(-c2cc(-c3ccc(F)cc3)nc(-n3cccc3CN3CCC(C)CC3)c2C#N)c(OC)c1OC |  |  |  |  | 
15 | 12.1 µM | 0.06 µM | 38.3 µM | 0.26 µM | 14.4 µM | CNCc1cccn1-c1nc(-c2ccc(F)cc2)cc(-c2ccc(OC)c(OC)c2OC)c1C#N |  |  |  |  | 
16 | 18.2 µM | 0.06 µM | 10.1 µM | 0.11 µM | 4.55 µM | COc1ccc(-c2cc(-c3ccc(F)cc3)nc(-n3cccc3CN3CCN(C)CC3)c2C#N)c(OC)c1OC |  |  |  |  | 
17 | 36.8 µM | 1.2 µM | 35.8 µM | 8.31 µM | 11 µM | COc1cc(-c2cc(-c3ccc(F)cc3)nc(-n3cccc3CN3CCCC3)c2C#N)cc(OC)c1OC |  |  |  |  | 
18 | 4.2 µM | 3.3 µM | 13.2 µM | 2.88 µM | 4.12 µM | CCNCc1cccn1-c1nc(-c2ccc(F)cc2F)cc(-c2cc(OC)c(OC)c(OC)c2)c1C#N |  |  |  |  | 
19 | 2.95 µM | 0.08 µM | 2.22 µM | 0.06 µM | 0.03 µM | CNCc1cccn1-c1nc(-c2ccc(F)cc2)cc(-c2cc(OC)c(OC)c(OC)c2)c1C#N | Active | 6.9 - 13 | 1.3 - 15 | 1.3 - 15 | 6.9 - 13
20 | 34.9 µM | 0.1 µM | 38.5 µM | 0.24 µM | 8.26 µM | COc1cc(-c2cc(-c3ccc(F)cc3)nc(-n3cccc3CNC(C)C)c2C#N)cc(OC)c1OC |  |  |  |  | 
21 | 13.1 µM | 1.21 µM | 42.2 µM | 1.54 µM | 16.9 µM | CCNCc1cccn1-c1nc(-c2ccc(F)cc2)cc(-c2cc(OC)c(OC)c(OC)c2)c1C#N |  |  |  |  | 

Row | Compound | IC50 (SMMC-7721) | IC50 (HT-29 [1]) | IC50 (MKN-45) | IC50 (NCI-H460 [2]) | IC50 (A549 [3]) | Activity (A549 [4]) | Ratio IC50 (HT-29 [5]) | Ratio IC50 (A549 [6]) | Ratio IC50 (NCI-H460 [7]) | Ratio IC50 (A549 [8])
22 | COc1cc([C@H]2C(C#N)=C(N)Oc3c2ccc(N)c3N)cc(Br)c1OC [CROLIBULIN] |  | 0.55 µM | 0.17 µM | 0.03 µM | 0.39 µM |  |  |  |  | 
23 | COc1ccc(/C=C\c2cc(OC)c(OC)c(OC)c2)cc1O [COMBRETASTATIN A4] | 1.72 µM | 0.06 µM | 0.21 µM | 0.08 µM | 0.45 µM | Active |  |  |  | 
